From patent US20180002312A1, “TETRA- AND PENTASUBSTITUTED BENZIMIDAZOLIUM COMPOUNDS USEFUL IN THE TREATMENT OF RESPIRATORY DISEASES” (Boehringer Ingelheim International GmbH, priority 2015, published 2018) come the findings set out here.

Each structure is given as a SMILES string. Read-outs that look alike come from different tables or passages of the source.

Data set [1] in a line: Permeability in CALU-3 cells. The data set is classed as in vitro ADME. As to conditions: human, CALU-3 monolayers, pH 7.4, 37° C., 10 μM compound; for Papp A→B at 90 min, 10 μM: apical-to-basal; for Papp B→A at 90 min, 10 μM: basal-to-apical. The protocol: Permeability in CALU-3 Cells:
Permeability measurements across polarized, confluent CALU-3 cell monolayers grown on permeable filter supports are used to provide information on the potential of a compound to pass the lung epithelium.
CALU-3 cells (1-2×10^5 cells/1 cm^2 area) are seeded on filter inserts (Costar transwell polycarbonate filters, 0.4 μm pore size) and cultured (for 10-12 days DMEM) until tight monolayers are formed. Compounds of interest are dissolved in appropriate solvent (DMSO, 10 mM stock solution). […] The transport solution (TL) is applied to the apical or basolateral donor side for measuring A-B or B-A permeability (3 filter replicates), respectively. The receiver side contains the same buffer as the donor side. After 30 min of accommodation, samples are collected at the start t0=0 min and at the end of the experiment tn=90 min from the donor and at 0, 30, 60, and 90 min also from the receiver chamber. Volume removed is […] by HTP-4 buffer. The compound concentration in the samples is measured by HPLC-MS/MS or scintillation counting. The permeability coefficient (Papp) and efflux ratio are calculated according to: Papp [cm/s]=(concentration receiver [nM]*volume receiver [mL]/time interval [sec])*(1/filter area)*(1/donor concentration [nM]).

The target in data set [2] is T1, ENaC (Epithelial Sodium Channel) (Mus musculus, UniProt Q61180+Q9WU38+Q9WU39).
T1 construct: Mouse kidney M-1 cells were cultivated in DMEM; endogenous in cells; host or cells: mouse kidney M-1 cells (cortical collecting duct line), dexamethasone-treated, grown on transwell filters
T1 sequence (Q61180 1-699): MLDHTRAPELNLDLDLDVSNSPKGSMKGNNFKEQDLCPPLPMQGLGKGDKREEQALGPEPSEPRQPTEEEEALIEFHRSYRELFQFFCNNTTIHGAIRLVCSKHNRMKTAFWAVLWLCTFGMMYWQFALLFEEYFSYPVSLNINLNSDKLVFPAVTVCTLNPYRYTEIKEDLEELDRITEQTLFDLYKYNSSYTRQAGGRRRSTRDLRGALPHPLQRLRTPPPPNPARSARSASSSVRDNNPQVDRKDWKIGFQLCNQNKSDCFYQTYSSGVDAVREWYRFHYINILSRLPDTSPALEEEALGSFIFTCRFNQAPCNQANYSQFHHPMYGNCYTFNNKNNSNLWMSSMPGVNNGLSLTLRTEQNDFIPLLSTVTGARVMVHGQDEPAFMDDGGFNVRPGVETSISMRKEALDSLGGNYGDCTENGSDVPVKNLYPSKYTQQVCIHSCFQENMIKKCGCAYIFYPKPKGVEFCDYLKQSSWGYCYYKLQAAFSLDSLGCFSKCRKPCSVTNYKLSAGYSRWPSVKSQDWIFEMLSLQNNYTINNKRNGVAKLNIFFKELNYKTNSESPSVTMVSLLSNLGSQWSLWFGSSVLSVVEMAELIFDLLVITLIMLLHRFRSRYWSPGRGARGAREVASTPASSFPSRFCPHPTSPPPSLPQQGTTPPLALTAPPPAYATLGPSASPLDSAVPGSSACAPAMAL
T1 sequence (Q9WU38 1-638): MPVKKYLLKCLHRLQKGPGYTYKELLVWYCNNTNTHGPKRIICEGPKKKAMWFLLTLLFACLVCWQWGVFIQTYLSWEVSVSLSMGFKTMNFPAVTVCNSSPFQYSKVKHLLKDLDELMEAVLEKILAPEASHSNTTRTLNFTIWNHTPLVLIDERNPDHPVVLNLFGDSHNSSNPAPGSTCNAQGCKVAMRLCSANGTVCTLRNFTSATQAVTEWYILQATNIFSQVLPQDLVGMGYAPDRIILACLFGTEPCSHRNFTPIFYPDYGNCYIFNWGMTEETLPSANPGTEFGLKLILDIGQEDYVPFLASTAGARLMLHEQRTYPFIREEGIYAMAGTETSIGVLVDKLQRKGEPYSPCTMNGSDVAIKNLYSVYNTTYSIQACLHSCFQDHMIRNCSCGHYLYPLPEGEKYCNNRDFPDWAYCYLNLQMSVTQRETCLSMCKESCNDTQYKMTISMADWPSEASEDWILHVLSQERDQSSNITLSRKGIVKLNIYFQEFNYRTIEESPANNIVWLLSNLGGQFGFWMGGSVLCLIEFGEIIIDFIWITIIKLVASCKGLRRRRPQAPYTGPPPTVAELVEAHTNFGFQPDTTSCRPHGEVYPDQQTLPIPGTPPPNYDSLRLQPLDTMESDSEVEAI
T1 sequence (Q9WU39 1-655): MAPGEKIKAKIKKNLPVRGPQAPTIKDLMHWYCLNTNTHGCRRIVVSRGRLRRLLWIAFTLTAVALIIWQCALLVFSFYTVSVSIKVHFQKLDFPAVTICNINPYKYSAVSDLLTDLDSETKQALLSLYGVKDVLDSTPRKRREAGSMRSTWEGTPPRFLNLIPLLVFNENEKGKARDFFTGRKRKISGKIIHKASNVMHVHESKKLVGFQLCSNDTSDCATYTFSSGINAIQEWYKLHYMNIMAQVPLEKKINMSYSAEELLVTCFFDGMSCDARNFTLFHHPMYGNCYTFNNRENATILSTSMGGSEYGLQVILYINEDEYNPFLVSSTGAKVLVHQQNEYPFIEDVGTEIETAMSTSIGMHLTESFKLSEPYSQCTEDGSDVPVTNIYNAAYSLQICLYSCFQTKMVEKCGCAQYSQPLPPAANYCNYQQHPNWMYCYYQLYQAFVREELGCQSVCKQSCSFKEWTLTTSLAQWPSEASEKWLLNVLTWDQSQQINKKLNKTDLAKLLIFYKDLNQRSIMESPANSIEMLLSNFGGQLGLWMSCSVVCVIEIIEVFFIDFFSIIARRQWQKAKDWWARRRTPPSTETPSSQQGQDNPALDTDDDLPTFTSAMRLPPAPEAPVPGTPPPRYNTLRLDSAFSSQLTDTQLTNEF
Briefly: Ussing Chamber assay: inhibition of amiloride sensitive short circuit current in M-1 cells. It counts as cell-based. On the procedure:
Ussing Chamber: Mouse kidney M-1 cells were cultivated in DMEM containing 5% FCS and 5 μM dexamethasone for 10 to 12 days on polyester transwell filters. Filters were inserted into a teflon-coated well-plate which fit into the ussing chamber system. Prior to measurement the medium of M-1 cells was replaced with Caco-2 transport buffer (Invitrogen, Germany). During measurements, the Ussing chamber temperature was kept at 37° C. Short circuit currents (I_sc) were measured in the voltage-clamp mode with the software package Lab View for data acquisition and analysis. The transepithelial electrical resistance (TEER) was determined by the application of voltage steps of ±5 mV every 5 sec. Compounds were administered at a final concentration of 3 μM or at increasing concentrations (1-3-10 μM) to the apical solution. At the end of each experiment the amiloride sensitive I_SC was measured by adding 3 μM amiloride to the apical compartment. Results are expressed as inhibition in percent of the amiloride effect or as IC50.

[3] abbreviates: Ussing chamber, mouse kidney M-1 cells, short circuit current, apical administration, 37° C., read-out: IC50.

Turning to `CC[n+]1c(CNC(=O)c2nc(Cl)c(N)nc2N)n(C[C@@H]2CCCO2)c2cc(OCC(=O)N3CC[S+]([O-])CC3)ccc21.O=C([O-])C(F)(F)F` [Example 1.01], in data set [1], the Papp A→B at 90 min, 10 μM was determined as 5 nm/s and the Papp B→A at 90 min, 10 μM came to 0.8 nm/s. Also, in data set [2] (setting [3]), the half-inhibitory concentration (IC50) came to 1 nM. As for `CCn1c(CNC(=O)c2nc(Cl)c(N)nc2N)[n+](Cc2cccnc2)c2ccc(OCC(=O)N(C)C)cc21.O=C([O-])C(F)(F)F` [Example 1.02], in data set [1], the Papp A→B at 90 min, 10 μM was found to be 4 nm/s and the Papp B→A at 90 min, 10 μM was found to be 2 nm/s. The IC50 in data set [2] (setting [3]) is 6 nM.

For the compound `CC[n+]1c(CNC(=O)c2nc(Cl)c(N)nc2N)n(CCOCCn2ccccc2=O)c2cc(OCP(C)(C)=O)ccc21.O=C([O-])C(F)(F)F` [Example 1.03], in data set [1], the Papp A→B at 90 min, 10 μM is 2 nm/s and the Papp B→A at 90 min, 10 μM was 0.7 nm/s. Further, in data set [2] (setting [3]), the IC50 is 49 nM. For `C[n+]1c(CNC(=O)c2nc(Cl)c(N)nc2N)n(C[C@@H]2CCCO2)c2cc(OCCO)ccc21.O=C([O-])C(F)(F)F` [Example 1.04] the same measures were 3 nm/s, 2 nm/s and 3 nM. As for `CCn1c(CNC(=O)c2nc(Cl)c(N)nc2N)[n+](CC2CCOCC2)c2ccc(OCC(=O)N(Cc3ccccc3)Cc3nc(C)ccc3[O-])cc21` [Example 1.05], the half-inhibitory concentration (IC50) in data set [2] (setting [3]) was determined as 5 nM. For `CCn1c(CNC(=O)c2nc(Cl)c(N)nc2N)[n+](CC2CCOCC2)c2ccc(OCC(=O)N(C)Cc3nc(C)ccc3[O-])cc21` [Example 1.06], in data set [2] (setting [3]), the IC50 was 1 nM. `CCn1c(CNC(=O)c2nc(Cl)c(N)nc2N)[n+](CC2CCOCC2)c2ccc(OCC(=O)NCc3nc(C)ccc3[O-])cc21` [Example 1.07]: in data set [2] (setting [3]), the IC50 was found to be 2 nM. In data set [1], `CCn1c(CNC(=O)c2nc(Cl)c(N)nc2N)[n+](Cc2cccc(C(=O)N3CC[S+]([O-])CC3)c2)c2ccc(OCCO)cc21.O=C([O-])C(F)(F)F` [Example 1.08] returned a Papp A→B at 90 min, 10 μM of 1 nm/s and a Papp B→A at 90 min, 10 μM of 0.9 nm/s. Besides, the IC50 in data set [2] (setting [3]) came to 16 nM.

On to `Nc1nc(N)c(C(=O)NCc2n(C[C@@H]3CCCO3)c3cc(OCCO)ccc3[n+]2CCOCCO)nc1Cl` [Example 1.09], for which the IC50 in data set [2] (setting [3]) came to 3 nM. `CC[n+]1c(CNC(=O)c2nc(Cl)c(N)nc2N)n(CCOCCn2cc(C(=O)N(C)C)ccc2=O)c2cc(OCCO)ccc21` [Example 1.11]: the IC50 in data set [2] (setting [3]) is 26 nM. In the case of `CCn1c(CNC(=O)c2nc(Cl)c(N)nc2N)[n+](CC2CCOCC2)c2ccc(OCC(=O)N(Cc3nc(C)ccc3[O-])C[C@H](C)O)cc21` [Example 1.12], the IC50 in data set [2] (setting [3]) was determined as 2 nM. Turning to `CC[n+]1c(CNC(=O)c2nc(Cl)c(N)nc2N)n(CC2CCOCC2)c2cc(OCCC[n+]3cc([O-])cc(OC)c3)c(Cl)cc21.O=C([O-])C(F)(F)F` [Example 1.13], in data set [1], the Papp A→B at 90 min, 10 μM is 4 nm/s and the Papp B→A at 90 min, 10 μM was 1 nm/s. Further, in data set [2] (setting [3]), the concentration for half-maximal inhibition (IC50) stood at 2 nM. Turning to `CC[n+]1c(CNC(=O)c2nc(Cl)c(N)nc2N)n(C[C@@H]2CCCO2)c2cc(OCC(=O)N3CCN(C(=O)OCc4ccccc4)CC3)ccc21` [Example 1.14], in data set [2] (setting [3]), the IC50 stood at 7 nM.

With `CC[n+]1c(CNC(=O)c2nc(Cl)c(N)nc2N)n(C[C@@H]2CCCO2)c2cc(OCC(=O)N3C[C@@H](O)[C@H](O)C3)ccc21` [Example 1.15], the IC50 in data set [2] (setting [3]) was found to be 2 nM. The same measure, in the same setting: the value for `CC[n+]1c(CNC(=O)c2nc(Cl)c(N)nc2N)n(CCOCCN2CCCCC2=O)c2cc(OCP(C)(C)=O)ccc21` [Example 1.16] was 87 nM; that for `CCN(Cc1ncccc1[O-])C(=O)COc1ccc2c(c1)n(CC)c(CNC(=O)c1nc(Cl)c(N)nc1N)[n+]2CC1CCOCC1` [Example 1.17] was 1 nM. In data set [1], `CC[n+]1c(CNC(=O)c2nc(Cl)c(N)nc2N)n(C[C@@H]2CCCO2)c2cc(OCC(=O)NCc3ccccn3)ccc21.O=C([O-])C(F)(F)F` [Example 2.01] had a Papp A→B at 90 min, 10 μM of 0.3 nm/s and a Papp B→A at 90 min, 10 μM of 0.5 nm/s. The IC50 in data set [2] (setting [3]) came to 1 nM. With `CCNC(=O)N1CCC(n2c(CNC(=O)c3nc(Cl)c(N)nc3N)[n+](CC)c3ccc(OCC(=O)NC4CCNCC4)cc32)CC1` [Example 3.02], the IC50 in data set [2] (setting [3]) was 3 nM.

Consider `CCCCCCN1CCC(NC(=O)COc2ccc3c(c2)n(C2CCN(C(=O)NCC)CC2)c(CNC(=O)c2nc(Cl)c(N)nc2N)[n+]3CC)CC1` [Example 4.01], for which the IC50 in data set [2] (setting [3]) is 4 nM. Regarding `CCNC(=O)N1CCC(n2c(CNC(=O)c3nc(Cl)c(N)nc3N)[n+](CC)c3ccc(OCC(=O)NC4CCN(CC)CC4)cc32)CC1` [Example 4.02], the IC50 in data set [2] (setting [3]) was determined as 2 nM. The same measure, in the same setting: the value for `CCNC(=O)N1CCC(n2c(CNC(=O)c3nc(Cl)c(N)nc3N)[n+](CC)c3ccc(OCC(=O)O)cc32)CC1` [Example 5.01] was 18 nM. Regarding `CCOP(=O)([O-])CCCCn1c(CNC(=O)c2nc(Br)c(N)nc2N)[n+](CC)c2ccc(O)cc21` [Example 6.01], the midpoint of inhibition in data set [2], the IC50, lay at 25 nM. For the compound `CC[n+]1c(CNC(=O)c2nc(Cl)c(N)nc2N)n(CCCCP(=O)([O-])O)c2cc(O)ccc21` [Example 7.01], in data set [2] (setting [3]), the IC50 turned out to be 63 nM.

Broadly, the Papp A→B is the apparent permeability from the apical to the basolateral side of a cell layer. A higher Papp A→B goes with ready permeation. The Papp B→A is how fast a substance crosses the layer from the basolateral side. In general, IC50 refers to the point on the concentration scale where inhibition reaches its midpoint.
